Data as given in patent US20050203029A1, “Agents for treating <I>flaviviridae</I>infections” (priority 2002, published 2005).
Peptide text beside a SMILES is read from it. * marks the point of attachment. Cbz = O=C(OCc1ccccc1)*

Assays:
West Nile virus = West Nile virus infection of BHK-21 cells (end point titration, RNase protection, immunofluorescence); type: cell-based, West Nile flavivirus; details: 10 nM PI after infection, 12 hours
BVDV CP7 = BVDV CP7 infection of MDBK cells (end point titration, RNase protection, immunofluorescence); type: cell-based, bovine viral diarrhea virus; details: 10 nM PI after infection, 30 hours
BVDV = assay: Electron microscopy (TEM) of BVDV-infected MDBK cells and virus supernatants; type: cell-based, bovine viral diarrhea virus
BVDV (CP7, NADL) = assay: Western blot of pelleted BVDV virions with anti-BVDV core antibodies; type: cell-based, bovine viral diarrhea virus; details: for production of BVDV virions (pelleted virions): 24 or 48 hours of treatment; for core signal, mature and immature form of the BVDV core protein / quantity of BVDV virus as measured by the core signal: 48 hours of treatment; for quantity of BVDV virus as measured by the core signal: 150 μM

| Structure (SMILES) | reduction in the number of progeny viruses released (West Nile virus) | reduction in the number of progeny viruses released (BVDV CP7) | number of virus particles detected in cellular vesicles vs mock (BVDV; 10 μm MG132, 30 hours) | ratio of completely assembled to incompletely assembled virions (BVDV; 10 μm MG132, 30 hours) | morphology of secreted viruses vs wild-type viruses (BVDV; supernatants of PI-treated vs mock-treated cells) | production of BVDV virions (pelleted virions) (BVDV (CP7, NADL)) | core signal, mature and immature form of the BVDV core protein (BVDV (CP7, NADL)) | quantity of BVDV virus as measured by the core signal (BVDV (CP7, NADL)) [%] | reduction in the rate of RNA replication (factor) (West Nile virus) | reduction in the rate of RNA replication (factor) (BVDV CP7) |
| --- | --- | --- | --- | --- | --- | --- | --- | --- | --- | --- |
| CC(C)C[C@@H](C=O)NC(=O)[C@H](CC(C)C)NC(=O)[C@H](CC(C)C)NC(=O)OCc1ccccc1 [MG132, N-carbobenzoxy-L-leucinyl-L-leucinyl-L-leucinal] (Cbz-Leu-Leu-Leu-aldehyde) | several log steps | several log steps | significantly smaller number of virus particles | shifted significantly in favor of incompletely assembled virus particles | changed markedly | block the production of BVDV virions | dose-dependent decrease | 10 |  |  |
| CC(=O)N[C@@H](CSC(=O)[C@]1([C@@H](O)C(C)C)NC(=O)[C@H](C)[C@@H]1O)C(=O)O [lactacystin] | slight | slight |  |  |  | block the production of BVDV virions | dose-dependent decrease | 10 | slight | slight |
